Tested on: mouse brain, dopaminergic neurons
Assay: MRI imaging of mouse brain after injection of tracer
Assay type: in vivo
Conditions: mice, MRI images 48 hours after administration
Source text: The central figure is a chimera directly comparing the left hemisphere of the control with the right hemisphere of the TP-TEMPO treated. In this central image the “Y” shaped region (1) is where the dopaminergic neurons are found.
With its dependence on the more biologically variable parameters of proton density, longitudinal relaxation time (T1), and transverse relaxation time (T2), variable image contrast can be achieved by using different pulse sequences and by changing the imaging parameters. Signal intensities on T1, T2, and proton density-weighted images relate to specific tissue characteristics. Moreover, with MRI's multi-planar capability, the imaging plane can be optimized for the anatomic area being studied, and the relationship of lesions to eloquent areas of the brain can be defined more accurately. Since T2-weighted images are most sensitive for detecting brain pathology, patients with suspected intracranial disease are typically screened using the T2-weighted regime. However, it has proven difficult to apply MRI to Parkinson's disease, as the dompaminergic neurons have the same MRI characteristics as the surrounding tissues, so that the Parkinson's lesions are invisible using conventional MRI and can only be detected using histology post-mortem. […]

CN1CC=C(C2CC(C)(C)N(O)C(C)(C)C2)CC1 [TP-TEMPO, 2,2,6,6-tetramethyl-4-(1-methyl-1,2,3,6-tetrahydropyridin-4-yl)piperidin-1-oxyl]
migration of probe to the dopaminergic neurons: preferentially migrated to the dopaminergic neurons
partitioning of probe into the brain: partitioned preferentially into the brain

Reference: patent publication US20070275944A1, “Antioxidants and methods of their use” (The Board of Trustees Operating Michigan State University, priority 2006, published 2007)
